Series [1] relates to GFPmut3 expression. In words: Demonstration of bistability of toggle and control plasmids. The series is classed as cell-based, E. coli strain JM2.300. The following applies: for GFP EXPRESSION (bistable or monostable behaviour): Toggles, Type IV plasmids; for bistability: Type IV toggle plasmids with RBS1 sequences of varying efficiency. From the text: In order to test the limits of bistability of the toggle switch, the al parameter was varied experimentally by inserting RBS1 sequences of varying efficiency into pTAK (Class 1) and pIKE (Class 2) toggle switches of Type IV. Four pTAK series plasmids (Class 1) were constructed with RBS1 sequences D,F,G and H, and two pIKE series plasmids (Class 2) were constructed with RBS1 sequences A and C (Table 6).
The existence of bistability is illustrated in FIG. 12. In this experiment, the toggle and control plasmids were grown in E. coli strain JM2.300 for 23.5 hours. At 6, 11, 18 and 23.5 hours, samples were taken and cells were pelleted, washed once in LB or PBS, and diluted 500-1000 fold into fresh medium with or without inducers as appropriate. […] Cells were washed and diluted into fresh medium with no IPTG and grown an additional 5 hours. […] Cells were diluted into fresh medium and induced at 42° C. (pTAK plasmids only—FIG. 12A) or grown in the presence of 500 ng/ml aTc (pIKE plasmids only—FIG. 12B). […] Cells were washed and diluted into fresh medium with no inducers or returned to standard temperature.
In this experiment, a single culture of pTAK117 cells (initially in the low state) was divided into two groups and diluted. The first group was grown in medium with no inducers (squares) while the second group was grown in medium plus 2 mM IPTG (circles). After 6 hours, cells were pelleted, washed once in LB and diluted 1000 fold into fresh medium with no inducer. Both groups of cells were grown for an additional 22 hours while taking samples and diluting into fresh medium every 6-8.5 hours.

Series [2] concerns GFPmut3 expression. Briefly: Toggle switch induction threshold (steady-state gene expression after 17 hour IPTG induction). The format is cell-based, E. coli strain JM2.300. The following applies: 17 hours in 13 different concentrations of IPTG. On the procedure:
This was tested experimentally. In this experiment, pTAK117 (initially in the low state) and pTAK102 (as a control) were grown in 13 different concentrations of IPTG for 17 hours, diluting twice (at 6 and 12.5 hours) into fresh medium with the same IPTG concentration. The cells were grown for this length of time in order to ensure that they reached steady-state expression levels. […] Point 1 was taken from separate experiments measuring the high state of pTAK117 with no inducer. Points 3a and 3b are the high and low modes of a bimodally distributed cell population. The bimodality occurred apparently due to natural fluctuations in gene expression and the close proximity of the toggle switch to its bifurcation point. Induction of the pTAK102 control has the familiar sigmoidal shape (triangles). […] This discontinuity is referred to as a saddle-node bifurcation.

Series [3] relates to GFPmut3 expression. Briefly: Switching time of toggle switch. The format is cell-based, E. coli strain JM2.300. On the procedure:
In this experiment, pTAK117 cells initially in the low state were diluted in fresh medium and induced with 2 mM IPTG. Separate cultures were grown for 35 minutes to 6 hours before pelleting, washing, and diluting the cells 500 fold in fresh medium with no inducer. Growth was continued until 10.25 hours after the start of the experiment and cells were assayed in the flow cytometer. Conversely, pTAK117 cells initially in the high state were diluted in fresh medium with no inducer. Separate cultures were grown at 41±1° C. for 35 minutes to 6 hours before diluting the cells 500 fold in fresh medium with no inducer. Growth was continued at standard temperature until 10.25 hours after the start of the experiment and cells were assayed in the flow cytometer.
The cell population at four time points is illustrated. As evidenced by the appearance of a bimodal distribution at 4 hours (FIG. 15C), the pTAK117 plasmid began switching to the high state between 3 and 4 hours of IPTG induction. By five hours, the switching was nearly complete. By six hours, the switching was complete (FIGS. 15A and 15C). On the other hand, switching from the high state to the low state was completed in 35 minutes or less (FIG. 15B). In this experiment, the primary determinant of switching time appears to be the rate of destruction of the expressed transcribed repressor protein. […]

The next series deals with OL1-OL3. To be noted: λ to OL1-OL3; cited from earlier work.
For a further series, the system named is GFP expression. In words: Flow-cytometer assay of gene expression and promoter strength (GFP expression by plasmids). The format is cell-based, E. coli strain JM2.300. To be noted: repressor expressed from Ptrc-2-E; 14,300/2.5. On the procedure: The host cell for all promoter assays and toggle switch experiments was E. coli strain JM2.300 [λ-, lacI22, rpsLl35 (StrR), thi-1] (CGSC strain 5002). JM2.300, which contains few mutations and is a fast growing strain that can tolerate enormous overexpression of plasmid-bound genes. Because JM2.300 contains no λ repressor and carries a non-functional Lac repressor (lacI22), it is considered to be a suitable host for the toggle switch.
All cells were grown in LB medium (Difco) with 100 μg/ml ampicillin plus inducers as indicated in the text. All Type I and pIKE series plasmids were grown at 37±1° C., unless otherwise indicated. All pTAK series plasmids were grown at 32±1° C. except during thermal induction. […]
The following expression data was collected using a Becton-Dickinson FACSCalibur flow cytometer with a 488 nm argon excitation laser and a 515-545 nm emission filter. […] Cells were assayed at low flow rate and fluorescence was calibrated using InSpeck Green fluorescent beads (Molecular Probes). […] All flow data were converted to ASCII format using MFI (E. Martz, University of Massachusetts, Amherst, available at http://marlin.bio.umass.edu/mcbfacs/flowcat.html\##mfi) and analyzed with Matlab (Mathworks).
The strengths, in calibrated fluorescence units, of the promoter/RBS pairs used to construct the toggle switches are listed in Table 6. […]

The subject of series [4] is hybrid promoter: E. coli LexA operator sequence spliced into the HSV tk promoter. To be noted: mammalian cells that synthesized the repressor; cited from earlier work.

“pIKE105: Class 2 Type IV toggle plasmid (SEQ ID NO: 16), PLtetO-1, RBS1 A, lacI and tetR”: in the series on GFPmut3 expression [1], the “GFP EXPRESSION (bistable or monostable behaviour)” value (shortened to “GFP EXPRESSION”) is “Monostable” and the bistability result was “did not exhibit bistability”. For the same molecule, in the series on GFPmut3 expression [1] (washed, diluted into fresh medium with no IPTG, additional 5 hours), the “state after removal of IPTG” value is on record as “returned to the low state”.

As to “pIKE107: Class 2 Type IV toggle switch plasmid (SEQ ID NO: 17), PLtetO-1, RBS1 C”, in the series on GFPmut3 expression [1], the “GFP EXPRESSION” value is “Bistable” and the bistability result is “exhibited bistability”.

In the case of “pTAK117: Class 1 Type IV toggle switch plasmid (SEQ ID NO: 12), PLslcon, RBS1 D, lacI and cIts”, the “shape of IPTG induction curve” value in the series on GFPmut3 expression [2] is given as “quasi-discontinuous jump to the high state”. For the same molecule, in the series with GFPmut3 expression [2] (initially in the low state), the “IPTG concentration at which toggle exhibits quasi-discontinuous jump to the high expression state” value is 40 µM. For the same molecule, the “long-term stability of the two states” value in the series with GFPmut3 expression [1] (6 hours with or without 2 mM IPTG, then 22 hours with no inducer) is recorded as “remained in their initial high or low states for the entire 22 hour period”. In the series on GFPmut3 expression [1], the “GFP EXPRESSION” value was “Bistable”. Besides, in the series with GFPmut3 expression [3] (2 mM IPTG induction), the “switching from low to high state complete” value is given as “six”. For the same molecule, in the series with GFPmut3 expression [3] (thermal induction at 41±1° C.), the “switching from the high state to the low state completed” value is at most 35 min.

In the case of “pTAK130: Class 1 Type IV toggle switch plasmid (SEQ ID NO: 15), PLslcon, RBS1 G”, the “GFP EXPRESSION” value in the series on GFPmut3 expression [1] is “Bistable”.

For the molecule “pTAK131: Class 1 Type IV toggle switch plasmid (SEQ ID NO: 13), PLslcon, RBS1 F”, in the series with GFPmut3 expression [1], the “GFP EXPRESSION” value is listed as “Bistable”.

As to “pTAK132: Class 1 Type IV toggle switch plasmid (SEQ ID NO: 14), PLslcon, RBS1 H”, the “GFP EXPRESSION” value with GFPmut3 expression [1] is listed as “Bistable”.

Regarding “λ repressor (cI): bacteriophage λ repressor protein that represses the PL promoter”, the Kd at OL1-OL3 is around 1 nM. Besides, the “repression of the PLSlcon-D promoter” value in the series on GFP expression is listed as around 6000 fold.

B1: E. coli LexA repressor protein: E. coli repressor protein that represses transcription at operator site Olex (protein, UniProt P0A7C2 1-202, looked up)
LexA repressor: MKALTARQQEVFDLIRDHISQTGMPPTRAEIAQRLGFRSPNAAEEHLKALARKGVIEIVSGASRGIRLLQEEEEGLPLVGRVAAGEPLLAQQHIEGHYQVDPSLFKPNADFLLRVSGMSMKDIGIMDGDLLAVHKTQDVRNGQVVVARIDDEVTVKRLKKQGNKVELLPENSEFKPIVVDLRQQSFTIEGLAVGVIRNGDWL
On to B1, for which the “reduction of expression from hybrid LexA operator / HSV tk promoter” value in series [4] was 10 fold.

As usually defined, the Kd is the constant that tells how readily two partners part at equilibrium.

The record behind these values is patent US6841376B2, “Bistable genetic toggle switch” (Cellicon Technologies, Inc., priority 1998, dated 2005).
